Each structure is given as a SMILES string.

We go through one compound from US20150250883A1, “COMPOSITIONS AND METHODS TO IMPROVE THE HOMING AND GRAFTING OF HEMATOPOETIC STEM CELLS” (7 HILLS PHARMA, LLC, priority 2014, published 2015).

Experiment [1] has as its system Jurkat cells (integrin expressing) adhering to immobilized CS1-BSA. The experiment in a line: Static adhesion of integrin expressing cells to an immobilized integrin ligand. Format: cell-based. The procedure: The effective concentration of a representative agonist compound, THI0019, in a cell carrier was evaluated by a static adhesion of integrin expressing cells to an immobilized integrin ligand in vitro, as described below.
The effective concentration of THI0019, a representative agonist compound used in this example, was evaluated by a static adhesion of integrin expressing cells to an immobilized integrin ligand. The 25 amino acid alternatively spliced sequence of fibronectin named connecting segment 1 (CS1) was synthesized and conjugated to BSA. CS1-BSA at 0.3 μg/mL in 50 μL of a representative cell carrier was added to wells of a 96-well plate and allowed to coat overnight at 4° C. The representative cell carrier is isotonic Tris Buffered Saline comprising 50 mM Tris-HCl (pH 7.4), 150 mM NaCl and 1 mM MgCl2 and is a model isotonic buffer. Plates were washed with the cell carrier and blocked with 2 wt. % BSA for 1 h. 32×10^6 of Jurkat cells were labeled for 30 minutes with calcein-AM (Molecular Probes), washed 2 times with the cell carrier, resuspended in 8 mL of the cell carrier, and divided equally between two tubes. One tube of the cell suspension was treated with 40 μL DMSO (control) and the other with 40 μL of 1 mM THI0019 in DMSO. The control containing tube and the THI0019 containing tube were each further divided equally among four eppendorf tubes (Tubes 1-4 for each group) such that each contained 4×10^6 of the cells in 1 mL of the control or the THI0019 containing cell carrier. Tube 1 from each group was not further processed (“no treatment”). Tubes 2-4 were centrifuged at 100×G for 5 min at RT. The supernatant was carefully removed with a pipet and each cell pellet was resuspended in 1 mL of the cell carrier without the agonist compound. Tube 2 was not further processed (“pellet”). Tubes 3-4 were again centrifuged at 100×G for 5 min. The supernatant was carefully removed with a pipet and each cell pellet was resuspended in 1 mL of the cell carrier without the agonist compound. Tube 3 was not further processed (“1 wash”). Tube 4 was again centrifuged at 100×G for 5 min. The supernatant was carefully removed with a pipet and the cell pellet was resuspended in 1 mL of the cell carrier without the agonist compound. Tube 4 was not further processed (“2 wash”). The final concentrations of THI0019 in the respective cell carriers for no treatment, pellet, 1 wash, and 2 wash were 10 μM, […]. […] After 30-minute incubation at 37° C., the plates were washed 3 times with binding cell carrier, the adherent cells were lysed, and fluorescence was measured on a Tecan Safire plate reader. The number of cells bound was determined by standard curves correlating fluorescence to cell number generated with the same mixtures used for the assay.

The test system of experiment [2] is TF-1 cells on immobilized recombinant human VCAM-1. As to conditions: interpretation of cited detachment assay data; cited from earlier work.
Where [3] appears, read: static adhesion, FIG. 1, printed as 'at least 1 femtomolar (fM) to 1 μM'.

With `CCCC[C@@H](COC(=O)N(Cc1cccs1)Cc1cccs1)NC(=O)N[C@@H](CC(=O)OC)c1ccc2c(c1)OCO2` [THI0019, methyl (6S,10S)-10-(1,3-benzodioxol-5-yl)-6-butyl-3,8-dioxo-1-(2-thienyl)-2-(2-thienylmethyl)-4-oxa-2,7,9-triazadodecan-12-oate], in experiment [1] (after exposure to the agonist in cell carrier), the “ability of agonist treated cells to bind to a cognate ligand after exposure” value was “enhanced ability to bind to a cognate ligand within minutes”. The “adhesion potential of cells after dilution/washing of compound from cell carrier” value in experiment [1] (compound reduced by multiple 1000-fold serial dilutions to as low as 1 fM in cell carrier) is recorded as “retained the ability to exhibit enhanced adhesion potential”. For the same compound, in experiment [1] (setting [3]), the “effective amount of the agonist compound present in the cell carrier, lower end of range” value turned out to be 1 fM and the “effective amount of the agonist compound present in the cell carrier, upper end of range” value is 1 µM. Further, in experiment [2], the “effect on VCAM-1 / VLA-4 interaction (applicant's reading of Vanderslice data)” value is “stabilizes the VCAM-1 and VLA-4 interaction and upon endogenous ligand binding, the compound is displaced”.
